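All cell lines were grown in 96-well plates and treated with compound for 48 hours. Abbreviation: GI50, concentration required for 50% inhibition of growth.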 Active and inactive are the calls of the source. Cut-off read from the data, not from the text of the source: active = GI50 up to about 1.1 µM and inactive = higher. Where a SMILES comes first, the peptide text is derived from it. [ ]: non-standard residue; d: D form. Phe(4-Cl) = N[CH](Cc1ccc(Cl)cc1)C(=O)O
Tests used:
Assay in all cases: DTP human tumour cell line panel, 48 h
SF-539 = system: SF-539
SK-MEL-2 = system: SK-MEL-2
CCRF-CEM = system: CCRF-CEM
IGROV-1 = system: IGROV-1
HCT-116 = system: HCT-116
786-0 = system: 786-0
OVCAR-8 = system: OVCAR-8
MOLT-4 = system: MOLT-4
SF-295 = system: SF-295
UO-31 = system: UO-31
HOP-62 = system: HOP-62
ACHN = system: ACHN
SW-620 = system: SW-620
A549 = system: A549

Measured: GI50

CC(C)NC(=O)CCN(C(=O)O)S(=O)(=O)c1ccc(NC(=O)c2ccccc2)cc1
inactive: SF-539 24.6 µM | SK-MEL-2 > 100 µM | CCRF-CEM > 43.9 µM | IGROV-1 > 100 µM | HCT-116 > 39.7 µM | 786-0 > 79.6 µM | OVCAR-8 > 54.5 µM | MOLT-4 > 41.2 µM | SF-295 > 100 µM | UO-31 > 100 µM | HOP-62 > 100 µM | ACHN > 81.3 µM | SW-620 27.7 µM | A549 > 50.1 µM

COC(=O)C1(F)C(=O)NC(=O)NC1OC (configuration not stated)
inactive: SF-539 2.58 µM | SK-MEL-2 > 100 µM | CCRF-CEM 3.08 µM | IGROV-1 > 100 µM | HCT-116 7.8 µM | 786-0 39.7 µM | OVCAR-8 34.1 µM | MOLT-4 > 100 µM | SF-295 > 100 µM | UO-31 70.8 µM | HOP-62 25.5 µM | ACHN 29 µM | SW-620 > 100 µM | A549 5.92 µM

O=C1c2ccccc2C(Br)(Br)c2ccccc21
inactive: SF-539 57.8 µM | SK-MEL-2 > 31.6 µM | CCRF-CEM > 31.6 µM | IGROV-1 > 31.6 µM | HCT-116 > 31.6 µM | 786-0 > 31.6 µM | OVCAR-8 > 100 µM | MOLT-4 > 31.6 µM | SF-295 > 31.6 µM | UO-31 > 31.6 µM | HOP-62 > 10 µM | ACHN > 31.6 µM | SW-620 > 31.6 µM | A549 > 31.6 µM

CCOP(=O)(OCC)/C(C#N)=C/c1ccco1
inactive: SF-539 > 100 µM | SK-MEL-2 > 100 µM | CCRF-CEM > 100 µM | IGROV-1 > 100 µM | HCT-116 > 100 µM | 786-0 > 100 µM | OVCAR-8 > 100 µM | MOLT-4 > 100 µM | SF-295 > 100 µM | UO-31 > 100 µM | HOP-62 > 100 µM | ACHN > 100 µM | SW-620 > 100 µM | A549 > 100 µM

O=c1c2ccc(Br)cc2nc(-c2ccccc2)n1NC1OC(CO)C(O)C(O)C1O (configuration not stated)
inactive: SF-539 > 100 µM | SK-MEL-2 > 100 µM | CCRF-CEM 72.9 µM | IGROV-1 > 100 µM | HCT-116 > 100 µM | 786-0 > 100 µM | OVCAR-8 > 100 µM | MOLT-4 57.3 µM | SF-295 > 100 µM | UO-31 > 100 µM | HOP-62 59.3 µM | ACHN > 100 µM | SW-620 > 100 µM | A549 > 100 µM

COC(=O)C1=C(c2ccc(Cl)cc2)C(O)NC(NN)=N1 (configuration not stated)
inactive: SF-539 > 100 µM | SK-MEL-2 > 100 µM | CCRF-CEM > 100 µM | IGROV-1 > 100 µM | HCT-116 > 100 µM | 786-0 > 100 µM | OVCAR-8 > 100 µM | MOLT-4 > 100 µM | SF-295 > 100 µM | UO-31 > 100 µM | HOP-62 > 100 µM | ACHN > 100 µM | SW-620 > 100 µM | A549 > 100 µM

NC(=S)/N=C(/c1nc2ccc(Cl)cc2nc1O)C(O)c1ccccc1Cl (configuration not stated)
inactive: SF-539 > 100 µM | SK-MEL-2 > 100 µM | CCRF-CEM > 100 µM | IGROV-1 > 100 µM | 786-0 > 100 µM | OVCAR-8 > 100 µM | MOLT-4 > 100 µM | SF-295 > 100 µM | UO-31 > 100 µM | HOP-62 > 100 µM | ACHN > 100 µM | SW-620 > 100 µM | A549 > 100 µM

CN(C)CC1CCC(=C2CCCC2)C1=O (configuration not stated)
inactive: SF-539 20 µM | SK-MEL-2 18.4 µM | CCRF-CEM 3.03 µM | IGROV-1 17.6 µM | HCT-116 13.6 µM | 786-0 7.52 µM | OVCAR-8 20 µM | MOLT-4 2.76 µM | SF-295 > 100 µM | UO-31 18.3 µM | HOP-62 14.3 µM | ACHN 8.18 µM | A549 20.5 µM

CC(=O)OCC(=O)[C@@]1(O)CC[C@H]2[C@@H]3CCC4=CC(=O)[C@H](C)C[C@]4(C)[C@H]3[C@@H](O)C[C@@]21C
inactive: SF-539 > 100 µM | SK-MEL-2 > 100 µM | CCRF-CEM > 100 µM | IGROV-1 > 100 µM | HCT-116 > 100 µM | 786-0 > 100 µM | OVCAR-8 > 100 µM | SF-295 > 100 µM | HOP-62 > 100 µM | ACHN > 100 µM | SW-620 > 100 µM | A549 > 100 µM

CC12CCc3ccccc3C1=NNC(=O)C2 (configuration not stated)
inactive: SF-539 > 100 µM | SK-MEL-2 > 100 µM | CCRF-CEM > 100 µM | IGROV-1 > 100 µM | HCT-116 > 100 µM | 786-0 > 100 µM | OVCAR-8 > 100 µM | MOLT-4 > 100 µM | SF-295 > 100 µM | UO-31 > 100 µM | HOP-62 > 100 µM | ACHN > 100 µM | SW-620 > 100 µM | A549 > 100 µM

CC(O)C(NC(=O)C(Cc1ccccc1)NC(=O)C(NC(=O)C(CCCCN)NC(=O)C(Cc1c[nH]c2ccccc12)NC(=O)C(Cc1ccc(O)cc1)NC(=O)C(Cc1ccc(Cl)cc1)NC(=O)C(N)Cc1ccccc1)C(C)O)C(N)=O (configuration not stated) (H-F[Phe(4-Cl)]YWKTFT-NH2; configuration not given here)
inactive: SF-539 20 µM | SK-MEL-2 19.9 µM | CCRF-CEM 15.8 µM | IGROV-1 19.9 µM | HCT-116 18.9 µM | 786-0 22.4 µM | OVCAR-8 23.9 µM | MOLT-4 25.9 µM | SF-295 8.53 µM | UO-31 19 µM | HOP-62 20.5 µM | ACHN 21.9 µM | A549 16.2 µM

CC1=C(c2cc(C(=O)Nc3cccc(C(F)(F)F)c3)nc(NC#N)n2)Sc2ccccc2N1
inactive: SF-539 > 100 µM | SK-MEL-2 > 100 µM | CCRF-CEM 68.7 µM | IGROV-1 > 100 µM | HCT-116 > 100 µM | 786-0 97.5 µM | MOLT-4 > 100 µM | SF-295 > 100 µM | UO-31 > 100 µM | HOP-62 > 100 µM | ACHN > 100 µM | SW-620 > 100 µM | A549 > 100 µM

CC1=NN(C(=O)c2ccc(Cl)cc2)C(=O)/C1=C/c1ccc(O)cc1
inactive: SF-539 > 100 µM | SK-MEL-2 > 100 µM | CCRF-CEM > 100 µM | IGROV-1 > 100 µM | HCT-116 > 100 µM | 786-0 > 100 µM | OVCAR-8 > 100 µM | MOLT-4 > 100 µM | SF-295 > 100 µM | UO-31 > 100 µM | HOP-62 > 100 µM | ACHN > 100 µM | SW-620 > 100 µM | A549 > 100 µM

CS(=O)(=O)NNS(=O)(=O)c1ccc(Cl)cc1
inactive: SF-539 > 100 µM | SK-MEL-2 > 100 µM | CCRF-CEM 29.9 µM | IGROV-1 > 100 µM | HCT-116 > 100 µM | 786-0 > 100 µM | OVCAR-8 > 100 µM | MOLT-4 55.7 µM | SF-295 > 100 µM | UO-31 35.6 µM | HOP-62 > 100 µM | ACHN > 100 µM | SW-620 > 100 µM | A549 > 100 µM

COC(=N)c1csc(C2OC(CO)C(O)C2O)n1 (configuration not stated)
inactive: SF-539 > 100 µM | SK-MEL-2 > 100 µM | CCRF-CEM 86.5 µM | IGROV-1 > 100 µM | HCT-116 > 100 µM | 786-0 > 100 µM | OVCAR-8 > 100 µM | MOLT-4 61.9 µM | SF-295 > 100 µM | UO-31 50.7 µM | HOP-62 > 100 µM | ACHN > 100 µM | SW-620 > 100 µM | A549 > 100 µM

COc1ccc2c(c1)NC1(O)c3ccccc3C(=O)C21O (configuration not stated)
inactive: SF-539 > 100 µM | CCRF-CEM > 100 µM | IGROV-1 > 100 µM | HCT-116 > 100 µM | 786-0 > 100 µM | OVCAR-8 > 100 µM | MOLT-4 > 100 µM | SF-295 > 100 µM | UO-31 > 100 µM | HOP-62 > 100 µM | ACHN > 100 µM | SW-620 > 100 µM | A549 > 100 µM

CCOC(=O)c1c(-c2ccccc2)oc(-c2ccccc2)c1C(=O)OCC
inactive: SF-539 > 100 µM | SK-MEL-2 94.2 µM | CCRF-CEM 41.1 µM | IGROV-1 > 100 µM | HCT-116 > 100 µM | 786-0 > 100 µM | OVCAR-8 > 100 µM | MOLT-4 48.1 µM | SF-295 > 100 µM | UO-31 > 100 µM | HOP-62 > 100 µM | ACHN > 100 µM | SW-620 > 100 µM | A549 > 100 µM

CCCCC#COP(=O)(OCC)OCC
inactive: SF-539 > 100 µM | SK-MEL-2 > 100 µM | CCRF-CEM > 100 µM | IGROV-1 > 100 µM | HCT-116 > 100 µM | 786-0 > 100 µM | OVCAR-8 > 100 µM | MOLT-4 > 100 µM | SF-295 > 100 µM | UO-31 > 100 µM | HOP-62 > 100 µM | ACHN > 100 µM | SW-620 > 100 µM | A549 > 100 µM

CCCCCCCC1(c2ccc(N)cc2)CCC(=O)NC1=O (configuration not stated)
inactive: SK-MEL-2 35.8 µM | CCRF-CEM > 10 µM | IGROV-1 32.3 µM | 786-0 28.4 µM | OVCAR-8 35.8 µM | MOLT-4 23.8 µM | SF-295 30.4 µM | UO-31 20.5 µM | HOP-62 32.9 µM | ACHN 18.7 µM | SW-620 58.2 µM | A549 31.6 µM

From ChEMBL document CHEMBL1201862, “PubChem BioAssay data set” (2004)
